From patent US10111822B2, “External dermal composition for anti-ageing and method for producing the same” (Hayashibara Co., Ltd., priority 2012, dated 2018) come the findings set out here.

The test system of one series is occludin. The experiment in a line: TJ-related protein occludin in NHEK cells (Western). It is filed as cell-based, human. Particulars: 1 mM, 3 days, CaCl2 positive control = 100%, no addition 63%. As for the experimental part:
(§1) The following experiment was conducted to examine the effect of ascorbic acid 2-glucoside on the production of TJ-related proteins that constitute cell-cell adhesion structures by focusing on occludin and ZO-1 that are focused on as TJ-related proteins known to exist in a granular layer of epidermis: As a model for typical normal human epidermal cells, NHEK cells were suspended in EpiLife medium (pH 7.4); inoculated to 12-well microplates at a cell density of 1×10^5 cells/well; cultured overnight under the conditions of 37° C. and 5% v/v CO2; and further cultured for three days under the conditions of 37° C. and 5% v/v CO2 after adding either CaCl2 as a positive control to each well to give a final concentration of 0.5 mM, or “AA2G”, a product name of a particulate composition containing anhydrous crystalline ascorbic acid 2-glucoside, commercialized by Hayashibara Co., Ltd., Okayama, Japan, to give a final concentration of 0.5 or 1 mM. […] A sample of 20 μg protein for each lane per each cell extract in respective wells was applied to sodium dodecyl sulfate polyacrylamide gel electrophoresis (SDS-PAGE) with 10% w/v SDS containing DTT, followed by assaying the concentration of occludin or ZO-1 in each cell extract with “Luminate Western HRP Substrates”, a product name of a premixed, ready-to-use chemiluminescent detection reagent using an internal standard “α-Tubulin”, commercialized by Merck KGaA, Darmstadt, Germany, wherein there were used “F-11”, a product name of an anti-occludin mouse monoclonal antibody, commercialized by Santa Cruz Biotechnology, Inc., Texas, USA, or “ZO1-1A12”, a product name of a ZO-1 mouse monoclonal antibody, commercialized by Invitrogen Corporation, Calif., USA, was used as a first antibody; and “PO447”, a product name of a horseradish peroxidase (HRPO) labeled anti-mouse IgG, commercialized by DAKO Japan Inc., Tokyo, Japan, or “PO448”, a product name of an HRPO-labeled anti-rabbit IgG, commercialized by DAKO Japan Inc., Tokyo, Japan, as a secondary antibody. […]

In another series the test system is cornified envelope (CE). The experiment in a line: Production of cornified envelope (CE) in NHEK cells. In kind it is cell-based, human. The following applies: 1 mM, 5 days, control 0.63 ± 0.07. As for the experimental part:
The following experiment was conducted to examine the effect of ascorbic acid 2-glucoside on the production of CE in a keratinous layer. As a model for typical normal human epidermal cells, normal human epidermal keratinocytes from neonatal foreskin, commercialized by Kurabo Industries Ltd., Osaka, Japan, and abbreviated as “NHEK cells”, hereinafter, were suspended in EpiLife medium (pH 7.4), commercialized by Invitrogen Corporation, Calif., USA, and called “EpiLife medium”, hereinafter, inoculated to 12-well microplates at a cell density of 1×10^5 cells/well, and cultured under the conditions of 37° C. and 5% v/v CO2 overnight. Thereafter, “AA2G”, a product name of a particulate composition containing anhydrous crystalline ascorbic acid 2-glucoside, commercialized by Hayashibara Co., Ltd., Okayama, Japan, was added to each well to give a final concentration of 0.5 or 1 mM, or, as a positive control, CaCl2 was added to each well to give a final concentration of 1 mM; and the cells in each well were cultured at 37° C. for five days while replacing the medium in each well with a fresh preparation of EpiLife medium having the above-identified concentration of ascorbic acid 2-glucoside or CaCl2. Assay for intracellular CE content was carried out in accordance with Tatsuya Hasegawa et al., “Lipids”, Vol. 46, pp. 529 to 535, 2011. After completion of the culture, the culture supernatant in each well was immediately removed, followed by detaching and extracting the cells adhered to the wall of each well by means of pipetting with phosphate buffered saline (PBS, pH 7.4) containing 2% w/v sodium dodecyl sulfate (SDS), and collecting insoluble fractions by centrifugation at 15,000 rpm for 10 min. […] The measured values were regarded as CE production levels. […]

Another series concerns ZO-1. The experiment in a line: TJ-related protein ZO-1 in NHEK cells (Western). In kind it is cell-based, human. Particulars: 1 mM, 3 days, CaCl2 positive control = 100%, no addition 38%. As for the experimental part: as §1
The next series concerns B16 cells. Nature of the series: Cytotoxicity in B16 cell culture. It is filed as cell-based, mouse. Particulars: D-MEM medium, 2.0 mM, 2 h.
The subject of series [1] is glutathione. Nature of the series: Production level of glutathione in A431 cells. It is filed as cell-based, human. The following applies: 0.1 mM, 24 h, control = 100%. As for the experimental part: To Dulbecco's MEM medium, containing 10% v/v calf fetal serum and an antibiotic (abbreviated as “D-MEM”, hereinafter), were added ascorbic acid 2-glucoside, a reagent grade specimen commercialized by Hayashibara Co., Ltd., Okayama, Japan, or L-ascorbic acid, a special reagent grade specimen commercialized by Wako Pure Chemical Industries, Ltd., Tokyo, Japan, […]
Continuously-cultivated A431 cells in D-MEM medium were collected, resuspended in D-MEM medium, inoculated to culture plates with 10 cm in diameter (φ) in an amount of 1×10^6 cells/10 mL/plate, and cultured for 24 hours. Thereafter, the culture supernatants were removed by sucking, and the remaining cells were added with any of the test solutions in an amount of 10 mL/plate and cultured for another 24 hours. As a control, cells were added with only D-MEM medium in an amount of 10 mL/plate and cultured for 24 hours. To each plate, which had been removed its culture supernatant, was added ice-chilled Dulbecco's PBS (−) commercialized by Nissui Pharmaceutical Co., Ltd., Tokyo, Japan, to wash cells, which were then collected with a scraper. Glutathione was quantified with “Glutathione Assay Kit”, a commercially available glutathione assay kit commercialized by BioVision, Inc., San Francisco, USA. In this experiment, the control and test solutions were respectively assayed by using three plates respectively, and the data were averaged for obtaining a glutathione production level for each plate. A5% v/v CO2 incubator was used for culturing A431 cells in any case. Relative values of test samples were determined with the proviso that the production levels of reduced glutathione and total glutathione levels in A431 cells that had been cultured with only D-MEM medium were respectively regarded as 100%, and the results are in Table 4.

For another series, the system named is NHEK cells. Nature of the series: Cytotoxicity in NHEK cell culture. In kind it is cell-based, human. Particulars: EpiLife medium, 24 h.
Series [2] has as its system glutathione. The experiment in a line: Production level of glutathione in NHEK cells. In kind it is cell-based, human. The following applies: 0.1 mM, 24 h, control = 100%. As for the experimental part: Continuously-cultivated NHEK cells in EpiLife medium were collected, resuspended in EpiLife medium, inoculated to culture plates with 10 cm in diameter in an amount of 1×10^6 cells/10 mL/plate, and cultured for 24 hours. Thereafter, each culture supernatant was removed by sucking, and any of the test solutions was added to the remaining cells in a volume of 10 mL/plate, followed by culturing the cells for another 24 hours. As a control, cells were added with only D-MEM medium in an amount of 10 mL/plate and cultured for 24 hours. Each culture supernatant was removed from each plate, then ice-chilled Dulbecco's PBS (−), commercialized by Nissui Pharmaceutical Co., Ltd., Tokyo, Japan, was added to rinse the remaining cells, which were then collected with a scraper. Glutathione was quantified on “Glutathione Assay Kit”, a product name of glutathione assay kit commercialzied by BioVision, Inc., San Francisco, USA. In this experiment, the control and test solutions in respective three plates were assayed for glutathione production level for each plate and averaged for obtaining the glutathione production level of each solution. A 5% v/v CO2 incubator was used for culturing NHEK cells in any case. Relative values of test samples were determined with the proviso that the production levels of reduced glutathione and total glutathione in NHEK cells that had been cultured with only EpiLife medium were respectively regarded as 100%, and the results are in Table 5.

Another series deals with A431 cells. The experiment in a line: Cytotoxicity in A431 cell culture. It is filed as cell-based, human. The following applies: D-MEM medium, 24 h.

For the compound `[Ca+2].[Cl-].[Cl-]` [CaCl2, reference compound], the “Occludin concentration in cell extract” value in the series on occludin came out at 100%. Also, the “OD310nm Value (CE Production level)” value in the series on cornified envelope (CE) worked out at 1.07 ± 0.07. Further, the “ZO-1 Concentration in cell extract” value in the series with ZO-1 is 100%.

With `O=C1O[C@H]([C@@H](O)CO)C(O)=C1O` [L-ascorbic acid], the figures for the cytotoxicity result with B16 cells, with NHEK cells (0.5 mM) and in the series on A431 cells (1.0 mM) were “induced cytotoxicity”, “cytotoxicity induced” and “cytotoxicity was induced”, respectively. In addition, the Reduced glutathione was determined as 103% in the series on glutathione [1] and 102% with glutathione [2]. For the same compound, the Total glutathione with glutathione [1] is listed as 102%; in the series with glutathione [2], 103%. Further, the “upper limit concentration that does not induce cytotoxicity” value in the series on NHEK cells and with A431 cells was 0.1 mM throughout.
